# Reference: US7476753B2, “3-aryl-2-cyano-3-hydroxy-acrylic acid derivatives” (Ciba Specialty Chemicals Corporation, priority 2003, dated 2009)
# Key:
# [1] = tested on: Salmonella choleraesuis ATCC 9184; test: MIC, Agar incorporation test; type: cell-based; conditions: 24 hours at 37° C.
# [2] = tested on: A. actinomycetemcomitans ATCC43718; test: MIC vs. oral germs, broth dilution method; type: cell-based, Actinobacillus actinomycetemcomitans; conditions: broth dilution; 24 h aerobically with 10% CO2, 37° C.
# Excerpt: (§1) b) Determination of MIC vs. different oral germs in the broth dilution method • Medium: Thioglycolate Bouillon with Hemin and Menadion Columbia Bouillon with Hemin and Menadion für P. gingivalis und P. nigrescens • diluent: the corresponding amount of the substances was pippeted directly • Examples of Test organisms: • Actinobacillus actinomycetemcomitans ATCC43718 • Streptococcus gordonii ATCC10558 • Streptococcus mutans ATCC33402 • Actinomyces viscosus ATCC43146 • Fusobacterium nucleatum subsp. polymorphum ATCC1095 • Porphyromonas gingivalis ATCC3277 • Prevotella nigrescens ATCC33563 • Incubation: 7-10 days at 37° C. under anaerobic conditions, resp. 24 h aerobically with 10% CO2 for Streptococci und A. actinomycetemcomitans • Test solution: Stock solutions in ethanol with 1500 ppm (w/w) are used from all test substances
# (§2) Bacteria are taken from blood agar plates with cotton swabs and a suitable O.D. is adjusted in the corresponding medium (McFarland 0.5). This solution is used for F. nucleatum and P. nigrescens in undiluted state, for the other strains a dilution of 1:20 is used. To each 2 ml of active ingredient containing solution 0.1 ml of the bacteria culture is added and incubated as described above.
# [3] = tested on: P. gingivalis ATCC3277; test: MIC vs. oral germs, broth dilution method; type: cell-based, Porphyromonas gingivalis; conditions: broth dilution, Columbia Bouillon with Hemin and Menadion; 7-10 days at 37° C., anaerobic
# Excerpt: as §1, §2
# [4] = tested on: P. nigrescens ATCC33563; test: MIC vs. oral germs, broth dilution method; type: cell-based, Prevotella nigrescens; conditions: broth dilution, Columbia Bouillon with Hemin and Menadion; 7-10 days at 37° C., anaerobic
# Excerpt: as §1, §2
# [5] = tested on: A. viscosus ATCC43146; test: MIC vs. oral germs, broth dilution method; type: cell-based, Actinomyces viscosus; conditions: broth dilution; 7-10 days at 37° C., anaerobic
# Excerpt: as §1, §2
# [6] = tested on: F. nucleatum subsp. polymorphum ATCC10953; test: MIC vs. oral germs, broth dilution method; type: cell-based, Fusobacterium nucleatum subsp. polymorphum; conditions: broth dilution; 7-10 days at 37° C., anaerobic
# Excerpt: as §1, §2
# [7] = tested on: S. mutans ATCC33402; test: MIC vs. oral germs, broth dilution method; type: cell-based, Streptococcus mutans; conditions: broth dilution; 24 h aerobically with 10% CO2, 37° C.
# Excerpt: as §1, §2
# [8] = tested on: Candida albicans ATCC 10231; test: MIC, Agar incorporation test; type: cell-based; conditions: Sabouraud 4% glucose agar, 3 days at 28° C.
# Experimental: 0.3 ml of each dilution step is mixed with 15 ml of nutrient medium while the latter is still liquid. After the nutrient medium has solidified, 10 μl of each of the following organism dilutions of the test strains in 0.85% NaCl solution are spotted onto the agar medium. […]
# [9] = tested on: S. gordonii ATCC10558; test: MIC vs. oral germs, broth dilution method; type: cell-based, Streptococcus gordonii; conditions: broth dilution; 24 h aerobically with 10% CO2, 37° C.
# Excerpt: as §1, §2
# [10] = tested on: Proteus vulgaris ATCC 6896; test: MIC, Agar incorporation test; type: cell-based; conditions: 24 hours at 37° C.
# Experimental: (§3) 0.3 ml of each dilution step is mixed with 15 ml of nutrient medium while the latter is still liquid. After the nutrient medium has solidified, 10 μl of each of the following organism dilutions of the test strains in 0.85% NaCl solution are spotted onto the agar medium.
# (§4) The plates are incubated during 24 hours at 37° C. and then the highest dilution (lowest concentration) of the test substance at which growth is just no longer discernible (corresponds to the MIC) is determined.
# [11] = tested on: Pseudomonas aeruginosa ATCC 15442; test: MIC, Agar incorporation test; type: cell-based; conditions: 24 hours at 37° C.
# Experimental: as §3, §4
# [12] = tested on: Escherischia coli ATCC 10536; test: MIC, Agar incorporation test; type: cell-based; conditions: 24 hours at 37° C.
# Experimental: as §3, §4
# [13] = tested on: Klebsiella pneumoniae ATCC 4352; test: MIC, Agar incorporation test; type: cell-based; conditions: 24 hours at 37° C.
# Experimental: as §3, §4
# [14] = tested on: Propionibacterium acnes ATCC 6919; test: MIC, Agar incorporation test; type: cell-based; conditions: 24 hours at 37° C.
# Experimental: as §3, §4
# [15] = tested on: Staphylococcus epidermidis ATCC 12228; test: MIC, Agar incorporation test; type: cell-based; conditions: 24 hours at 37° C.
# Experimental: as §3, §4
# [16] = tested on: C. minutissimum ATCC 23348; test: MIC, Agar incorporation test; type: cell-based; conditions: 24 hours at 37° C.
# Experimental: as §3, §4
# [17] = tested on: Aspergillus niger ATCC 6275; test: MIC, Agar incorporation test; type: cell-based
# Experimental: as §3, §4
# [18] = tested on: Corynebacterium xerosis ATCC 373; test: MIC, Agar incorporation test; type: cell-based; conditions: 24 hours at 37° C.
# Experimental: as §3, §4
# [19] = tested on: Staphylococcus aureus ATCC 6538; test: MIC, Agar incorporation test; type: cell-based; conditions: 24 hours at 37° C.
# Experimental: as §3, §4
structure (smiles),measurement,setting,value
CCCCC(CC)COC(=O)C(C#N)=C(O)c1ccc(-c2ccc(C(O)=C(C#N)C(=O)OCC(CC)CCCC)cc2)cc1 (stereo not shown) [(102b)],MIC Salmonella choleraesuis ATCC 9184,[1],>400 ppm
same,MHK (MIC) A. actinomycetemcomitans ATCC43718,[2],>15 ppm
same,MHK (MIC) P. gingivalis ATCC3277,[3],>15 ppm
same,MHK (MIC) P. nigrescens ATCC33563,[4],>15 ppm
same,MHK (MIC) A. viscosus ATCC43146,[5],7.5 ppm
same,MHK (MIC) F. nucleatum subsp. polymorphum ATCC10953,[6],>15 ppm
same,MHK (MIC) S. mutans ATCC33402,[7],>15 ppm
same,MIC Candida albicans ATCC 10231,[8],>400 ppm
same,MHK (MIC) S. gordonii ATCC10558,[9],15 ppm
same,MIC Proteus vulgaris ATCC 6896,[10],>400 ppm
same,MIC Pseudomonas aeruginosa ATCC 15442,[11],>400 ppm
same,MIC Escherischia coli ATCC 10536,[12],>400 ppm
same,MIC Klebsiella pneumoniae ATCC 4352,[13],>400 ppm
same,MIC Propionibacterium acnes ATCC 6919,[14],<1.56 ppm
same,MIC Staphylococcus epidermidis ATCC 12228,[15],25 ppm
same,MIC C. minutissimum ATCC 23348,[16],50 ppm
same,MIC Aspergillus niger ATCC 6275,[17],>400 ppm
same,MIC Corynebacterium xerosis ATCC 373,[18],<1.56 ppm
same,MIC Staphylococcus aureus ATCC 6538,[19],100 ppm
